Data on 13 compounds can be found in ChEMBL document CHEMBL5291721, “A preclinical secondary pharmacology resource illuminates target-adverse drug reaction associations of marketed drugs” (Nat Commun, 2023).

For one experiment, the target named is Adenosine receptor A2a (Homo sapiens, UniProt P29274).
The target of a further experiment is T1, Adenosine receptor A3 (Homo sapiens, UniProt P0DMS8).
T1 sequence (P0DMS8 whole entry): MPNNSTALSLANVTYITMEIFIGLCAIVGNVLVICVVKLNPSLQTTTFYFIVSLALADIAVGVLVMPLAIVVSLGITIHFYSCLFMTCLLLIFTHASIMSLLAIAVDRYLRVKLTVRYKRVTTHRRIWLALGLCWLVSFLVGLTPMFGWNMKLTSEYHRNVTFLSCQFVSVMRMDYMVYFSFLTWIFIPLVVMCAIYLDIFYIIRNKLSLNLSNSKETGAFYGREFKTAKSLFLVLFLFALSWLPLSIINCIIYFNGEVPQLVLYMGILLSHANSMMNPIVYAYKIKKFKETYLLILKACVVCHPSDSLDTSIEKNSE

The target of experiment [1] is T2, Alpha-2C adrenergic receptor (Homo sapiens, UniProt P18825).
T2 sequence (P18825 whole entry): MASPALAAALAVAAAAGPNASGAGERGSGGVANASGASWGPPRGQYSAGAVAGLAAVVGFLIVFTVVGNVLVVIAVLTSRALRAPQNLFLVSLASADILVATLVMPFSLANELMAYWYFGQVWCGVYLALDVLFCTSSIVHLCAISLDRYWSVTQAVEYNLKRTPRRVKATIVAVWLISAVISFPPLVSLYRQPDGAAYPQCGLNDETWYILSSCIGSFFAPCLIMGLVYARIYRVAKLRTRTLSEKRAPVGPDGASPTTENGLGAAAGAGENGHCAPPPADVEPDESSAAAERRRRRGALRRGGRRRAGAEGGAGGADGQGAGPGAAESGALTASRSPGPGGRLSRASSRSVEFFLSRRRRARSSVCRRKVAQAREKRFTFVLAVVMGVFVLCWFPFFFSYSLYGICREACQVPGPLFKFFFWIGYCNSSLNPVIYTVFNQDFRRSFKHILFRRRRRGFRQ
The class given is functional.

Experiment [2] addresses T3, Cholecystokinin receptor type A (Homo sapiens, UniProt P32238).
T3 sequence (P32238 whole entry): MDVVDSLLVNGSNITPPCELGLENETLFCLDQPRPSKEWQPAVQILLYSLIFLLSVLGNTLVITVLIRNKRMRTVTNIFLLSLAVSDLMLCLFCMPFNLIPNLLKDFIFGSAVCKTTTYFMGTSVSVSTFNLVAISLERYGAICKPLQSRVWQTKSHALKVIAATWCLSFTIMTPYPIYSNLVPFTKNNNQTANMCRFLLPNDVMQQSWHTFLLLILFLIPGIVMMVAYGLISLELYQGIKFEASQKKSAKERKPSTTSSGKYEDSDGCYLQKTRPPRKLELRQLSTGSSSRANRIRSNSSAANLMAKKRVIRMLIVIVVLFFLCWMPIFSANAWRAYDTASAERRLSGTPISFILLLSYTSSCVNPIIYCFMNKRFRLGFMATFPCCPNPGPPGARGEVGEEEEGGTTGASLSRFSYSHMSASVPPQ

The target in experiment [3] is Muscarinic acetylcholine receptor M3 (Homo sapiens, UniProt P20309).
Chain of Muscarinic acetylcholine receptor M3 (P20309 whole entry): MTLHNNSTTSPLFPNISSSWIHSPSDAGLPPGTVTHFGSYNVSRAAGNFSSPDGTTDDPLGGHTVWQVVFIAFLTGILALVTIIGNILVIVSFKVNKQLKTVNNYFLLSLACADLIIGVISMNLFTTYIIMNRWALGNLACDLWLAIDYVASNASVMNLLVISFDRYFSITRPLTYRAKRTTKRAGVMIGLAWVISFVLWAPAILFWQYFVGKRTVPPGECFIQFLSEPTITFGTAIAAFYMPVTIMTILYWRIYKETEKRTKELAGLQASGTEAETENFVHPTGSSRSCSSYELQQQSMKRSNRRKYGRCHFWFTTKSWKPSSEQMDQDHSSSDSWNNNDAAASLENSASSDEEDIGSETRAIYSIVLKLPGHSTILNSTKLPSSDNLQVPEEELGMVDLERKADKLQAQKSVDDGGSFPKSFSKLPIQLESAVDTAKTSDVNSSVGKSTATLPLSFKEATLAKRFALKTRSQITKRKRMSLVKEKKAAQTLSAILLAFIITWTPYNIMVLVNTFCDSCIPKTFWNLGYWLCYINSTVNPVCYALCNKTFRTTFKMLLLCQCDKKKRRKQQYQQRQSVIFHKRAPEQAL
The target of the next experiment is Cannabinoid receptor 1 (Homo sapiens, UniProt P21554). It counts as functional, cell-based.
Chain of Cannabinoid receptor 1 (P21554 whole entry): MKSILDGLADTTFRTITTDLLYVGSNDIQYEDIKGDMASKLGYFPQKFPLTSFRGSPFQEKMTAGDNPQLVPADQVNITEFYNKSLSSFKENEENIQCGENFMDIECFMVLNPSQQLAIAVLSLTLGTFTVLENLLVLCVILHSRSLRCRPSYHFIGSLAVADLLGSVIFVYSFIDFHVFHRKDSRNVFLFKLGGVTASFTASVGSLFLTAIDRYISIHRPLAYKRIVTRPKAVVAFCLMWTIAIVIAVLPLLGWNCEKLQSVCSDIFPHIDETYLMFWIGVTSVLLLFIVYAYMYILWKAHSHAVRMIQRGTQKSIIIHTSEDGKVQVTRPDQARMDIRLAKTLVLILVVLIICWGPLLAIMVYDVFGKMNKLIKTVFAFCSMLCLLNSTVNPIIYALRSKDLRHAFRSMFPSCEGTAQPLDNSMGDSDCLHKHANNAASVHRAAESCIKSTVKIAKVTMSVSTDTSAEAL
The target in experiment [4] is T4, 5-hydroxytryptamine receptor 1A (Homo sapiens, UniProt P08908).
T4 sequence (P08908 whole entry): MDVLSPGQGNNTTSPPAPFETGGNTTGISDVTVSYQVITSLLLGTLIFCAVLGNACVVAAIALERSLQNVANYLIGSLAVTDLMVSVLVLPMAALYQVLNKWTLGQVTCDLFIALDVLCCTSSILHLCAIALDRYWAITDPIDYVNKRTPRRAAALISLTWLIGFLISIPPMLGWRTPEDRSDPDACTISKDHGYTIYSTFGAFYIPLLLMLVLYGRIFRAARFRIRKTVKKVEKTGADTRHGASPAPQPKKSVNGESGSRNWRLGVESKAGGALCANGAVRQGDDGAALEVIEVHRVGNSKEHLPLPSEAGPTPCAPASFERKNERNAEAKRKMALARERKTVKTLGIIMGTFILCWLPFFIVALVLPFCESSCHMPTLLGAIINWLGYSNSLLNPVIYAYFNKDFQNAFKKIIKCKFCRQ
It counts as functional, cell-based.

The target in experiment [5] is 5-hydroxytryptamine receptor 2A (Homo sapiens, UniProt P28223). The class given is functional, cell-based.
Chain of 5-hydroxytryptamine receptor 2A (P28223 whole entry): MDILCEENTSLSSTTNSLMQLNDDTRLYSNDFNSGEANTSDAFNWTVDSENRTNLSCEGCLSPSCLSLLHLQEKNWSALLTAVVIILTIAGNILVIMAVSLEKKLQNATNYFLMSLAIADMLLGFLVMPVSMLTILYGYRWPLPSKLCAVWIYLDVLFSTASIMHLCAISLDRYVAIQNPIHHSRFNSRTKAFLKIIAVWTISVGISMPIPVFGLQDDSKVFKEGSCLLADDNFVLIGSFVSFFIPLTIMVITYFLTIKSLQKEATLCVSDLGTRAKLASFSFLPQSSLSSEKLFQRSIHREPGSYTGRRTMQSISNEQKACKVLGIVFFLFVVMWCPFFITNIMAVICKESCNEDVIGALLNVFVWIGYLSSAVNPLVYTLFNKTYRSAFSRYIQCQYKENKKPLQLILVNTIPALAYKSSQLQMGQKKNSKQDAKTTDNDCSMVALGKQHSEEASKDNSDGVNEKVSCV
A further experiment addresses Melanocortin receptor 3 (Homo sapiens, UniProt P41968).
Experiment [6] has as its target T5, Amine oxidase [flavin-containing] A (Homo sapiens, UniProt P21397).
T5 sequence (P21397 whole entry): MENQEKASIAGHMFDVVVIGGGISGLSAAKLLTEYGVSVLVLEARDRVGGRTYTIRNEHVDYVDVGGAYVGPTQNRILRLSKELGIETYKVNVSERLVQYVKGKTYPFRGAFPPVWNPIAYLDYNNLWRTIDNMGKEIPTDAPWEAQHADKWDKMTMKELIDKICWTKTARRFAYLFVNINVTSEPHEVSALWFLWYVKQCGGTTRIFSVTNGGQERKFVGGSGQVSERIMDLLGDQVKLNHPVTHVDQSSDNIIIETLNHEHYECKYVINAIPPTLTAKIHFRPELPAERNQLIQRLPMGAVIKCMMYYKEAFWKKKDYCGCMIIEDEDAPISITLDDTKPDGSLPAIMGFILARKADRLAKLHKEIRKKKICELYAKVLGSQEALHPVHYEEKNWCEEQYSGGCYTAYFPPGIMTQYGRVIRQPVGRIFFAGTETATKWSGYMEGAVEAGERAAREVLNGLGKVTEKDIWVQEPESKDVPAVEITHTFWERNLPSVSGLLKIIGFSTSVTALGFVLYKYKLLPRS
It counts as functional.

The structures appear in SMILES notation.
Also: assay procedure not described here.

Chain of Melanocortin receptor 3 (P41968 whole entry): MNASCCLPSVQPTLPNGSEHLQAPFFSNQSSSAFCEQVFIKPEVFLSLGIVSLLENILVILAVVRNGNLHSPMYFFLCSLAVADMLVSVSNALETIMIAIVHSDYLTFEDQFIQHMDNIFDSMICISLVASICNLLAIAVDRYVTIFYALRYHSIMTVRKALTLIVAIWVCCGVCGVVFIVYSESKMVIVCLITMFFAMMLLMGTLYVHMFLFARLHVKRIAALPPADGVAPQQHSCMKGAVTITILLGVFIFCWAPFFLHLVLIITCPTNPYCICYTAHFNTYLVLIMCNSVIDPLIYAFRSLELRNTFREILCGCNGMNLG
Chain of Adenosine receptor A2a (P29274 whole entry): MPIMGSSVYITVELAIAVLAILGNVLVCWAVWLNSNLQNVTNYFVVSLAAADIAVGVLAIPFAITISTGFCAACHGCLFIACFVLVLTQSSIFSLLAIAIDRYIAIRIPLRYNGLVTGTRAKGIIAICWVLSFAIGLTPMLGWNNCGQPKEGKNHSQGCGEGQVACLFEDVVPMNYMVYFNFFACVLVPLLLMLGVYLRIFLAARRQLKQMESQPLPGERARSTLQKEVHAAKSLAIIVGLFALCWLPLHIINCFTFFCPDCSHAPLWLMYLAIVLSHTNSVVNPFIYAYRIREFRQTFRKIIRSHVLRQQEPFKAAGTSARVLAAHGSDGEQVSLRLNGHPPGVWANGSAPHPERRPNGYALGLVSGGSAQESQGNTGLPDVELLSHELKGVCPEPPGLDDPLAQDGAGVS

On to `NS(=O)(=O)c1ccc(N2CCCCS2(=O)=O)cc1`, for which the AC50 (at Adenosine receptor A2a; on Adenosine receptor A3; in [1]; in [2]; in experiment [3]; at Cannabinoid receptor 1) was more than 30 µM in each case. Besides, the AC50 (in experiment [4]; in [5]; on Melanocortin receptor 3; in experiment [6]) was more than 30 µM each time.

Take `COc1cc(N)cn[n+]1-c1ccccc1` [AMEZINIUM METILSULFATE]: the AC50 (on Adenosine receptor A2a; on Adenosine receptor A3; in experiment [1]; in experiment [2]; in [3]; at Cannabinoid receptor 1) was more than 30 µM in each case. Moreover, the half-maximal activity concentration (AC50) in experiment [4] was 9.1 µM; in [5], more than 30 µM; at Melanocortin receptor 3, more than 30 µM; in experiment [6], 11 µM.

For `CC(=O)OCC1=C(C(=O)O)N2C(=O)[C@@H](NC(=O)Cc3cccs3)[C@H]2SC1` [CEPHALOTHIN], the half-maximal activity concentration (AC50) (on Adenosine receptor A2a; at Adenosine receptor A3; in [1]; in [2]; in [3]; at Cannabinoid receptor 1) was more than 30 µM each time. Also, the AC50 (in experiment [4]; in [5]; on Melanocortin receptor 3; in experiment [6]) was more than 30 µM each time.

For `CCCO[C@H]1[C@@H]([C@@H](COCc2ccc(Cl)cc2)OCc2ccc(Cl)cc2)OC(OCC)[C@@H]1O` (stereo not given in full) [CLOBENOSIDE], the AC50 was more than 30 µM on Adenosine receptor A2a; 20 µM at Adenosine receptor A3; more than 30 µM in [1]; more than 30 µM in experiment [2]; more than 30 µM in [3]; more than 30 µM at Cannabinoid receptor 1. The concentration at half-maximal activity (AC50) (in experiment [4]; in experiment [5]; at Melanocortin receptor 3; in experiment [6]) was more than 30 µM each time.

For `CCN1C(=O)NC(c2ccccc2)C1=O` (stereo not given) [ETHOTOIN], the AC50 at Adenosine receptor A2a is more than 30 µM; on Adenosine receptor A3, 12 µM; in experiment [1], more than 30 µM; in [2], more than 30 µM; in [3], more than 30 µM; at Cannabinoid receptor 1 it was more than 30 µM. For the same compound, the AC50 (in experiment [4]; in [5]; at Melanocortin receptor 3; in experiment [6]) was more than 30 µM throughout.

Turning to `Cc1ccc(S(=O)(=O)NC(=O)N[C@H]2[C@H]3CC[C@@](C)([C@H]2O)C3(C)C)cc1` [GLIBORNURIDE], the half-maximal activity concentration (AC50) (at Adenosine receptor A2a; on Adenosine receptor A3; in [1]; in experiment [2]; in [3]; at Cannabinoid receptor 1) was more than 30 µM throughout. For the same compound, the AC50 (in [4]; in experiment [5]; on Melanocortin receptor 3; in experiment [6]) was more than 30 µM in each case.

In the case of `CCC(=O)O[C@H](CC(=O)O)C[N+](C)(C)C` [LEVOCARNITINE PROPIONATE], the AC50 (on Adenosine receptor A2a; at Adenosine receptor A3; in [1]; in experiment [2]; in experiment [3]; at Cannabinoid receptor 1) was more than 30 µM throughout. Also, the concentration at half-maximal activity (AC50) (in experiment [4]; in [5]; on Melanocortin receptor 3; in [6]) was more than 30 µM throughout.

Take `O=C(O)c1nn(Cc2ccc(Cl)cc2Cl)c2ccccc12` [LONIDAMINE]: the AC50 (at Adenosine receptor A2a; on Adenosine receptor A3; in experiment [1]; in experiment [2]; in [3]; at Cannabinoid receptor 1) was more than 30 µM each time. Also, the concentration at half-maximal activity (AC50) (in experiment [4]; in experiment [5]; on Melanocortin receptor 3; in [6]) was more than 30 µM each time.

Turning to `COC(=O)c1ccc2c(c1)NC(=O)/C2=C(\Nc1ccc(N(C)C(=O)CN2CCN(C)CC2)cc1)c1ccccc1` [NINTEDANIB], the half-maximal activity concentration (AC50) was 21 µM at Adenosine receptor A2a; more than 30 µM at Adenosine receptor A3; more than 30 µM in experiment [1]; more than 30 µM in experiment [2]; more than 30 µM in [3]; more than 30 µM on Cannabinoid receptor 1. In addition, the AC50 (in experiment [5]; on Melanocortin receptor 3; in experiment [6]) was more than 30 µM each time.

For `CCN(CC)Cc1nccn1-c1ccc([N+](=O)[O-])cc1C(=O)c1ccccc1Cl` [NIZOFENONE], the AC50 (at Adenosine receptor A2a; at Adenosine receptor A3; in experiment [1]; in experiment [2]; in experiment [3]; on Cannabinoid receptor 1) was more than 30 µM each time. For the same compound, the AC50 (in experiment [5]; at Melanocortin receptor 3; in [6]) was more than 30 µM throughout.

In the case of `CCCCOC(=O)C(=O)Nc1cccc(-c2nnn[nH]2)c1` [TAZANOLAST], the AC50 (on Adenosine receptor A2a; at Adenosine receptor A3; in experiment [1]; in experiment [2]; in [3]; on Cannabinoid receptor 1) was more than 30 µM in each case. For the same compound, the AC50 (in experiment [5]; on Melanocortin receptor 3; in experiment [6]) was more than 30 µM throughout.

As for `CC1=C(/C=C/C(C)=C/C=C/C(C)=C/C(=O)Oc2c(C)c(C)c3c(c2C)CCC(C)(CCCC(C)CCCC(C)CCCC(C)C)O3)C(C)(C)CCC1` (stereo not given) [TRETINOIN TOCOFERIL], the AC50 (on Adenosine receptor A2a; at Adenosine receptor A3; in [1]; in [2]; in [3]; at Cannabinoid receptor 1) was more than 30 µM throughout. The AC50 (in experiment [5]; at Melanocortin receptor 3; in [6]) was more than 30 µM each time.

Regarding `CN(C)CCOCC(=O)NC12CC3CC(CC(C3)C1)C2` [TROMANTADINE], the half-maximal activity concentration (AC50) (at Adenosine receptor A2a; on Adenosine receptor A3; in [1]; in experiment [2]; in [3]; on Cannabinoid receptor 1) was more than 30 µM throughout. For the same compound, the concentration at half-maximal activity (AC50) (in [5]; on Melanocortin receptor 3; in experiment [6]) was more than 30 µM in each case.

As a reminder, the AC50 is the concentration at which the activity in the assay is half-maximal. Lower therefore signals activity at low concentration.
